No end group written: not given here.
Biological target: Ca2+/CaM (Homo sapiens, UniProt P0DP23)
Format: binding

Row | KD from titration to 15N-labeled Ca2+/CaM (result in words) (nanodisc free solution, same conditions as the SFWT peptide) | Kd | Substance
1 | did not reach saturation | – | HFGKpTGSSGPLQ [pSFWT]
2 | – | 0.27 µM | HAGKTGSSGPLQ [SFFA]
3 | – | 750 µM | HFGKTGAASDQR [LFRA]

Source: publication PMC6524640 (Biochimica et biophysica acta. Biomembranes, 2019)
